Test results: ChEMBL document CHEMBL1201862, “PubChem BioAssay data set” (2004)
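Five concentrations, 48 hours, 96-well plates. GI50 is the concentration that inhibits growth by half.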 Calls of active or inactive are those of the source. Cut-off read from the data, not from the text of the source: active = GI50 up to about 1.1 µM and inactive = higher.

How the values were obtained:
Assay in all cases: inhibition of tumour cell growth, NCI panel, 48 h
[1] = test system: 786-0
[2] = test system: A498
[3] = test system: A549
[4] = test system: ACHN
[5] = test system: CAKI-1
[6] = test system: CCRF-CEM
[7] = test system: COLO 205
[8] = test system: DLD-1
[9] = test system: DMS-114
[10] = test system: DMS-273
[11] = test system: EKVX
[12] = test system: HCC 2998
[13] = test system: HCT-116
[14] = test system: HCT-15
[15] = test system: HOP-18
[16] = test system: HOP-62
[17] = test system: HOP-92
[18] = test system: IGROV-1
[19] = test system: K562
[20] = test system: KM-20L2
[21] = test system: KM12
[22] = test system: LOX IMVI
[23] = test system: LXFL 529
[24] = test system: M14
[25] = test system: M19-MEL
[26] = test system: MOLT-4
[27] = test system: Malme-3M
[28] = test system: NCI-H226
[29] = test system: NCI-H23
[30] = test system: NCI-H460
[31] = test system: NCI-H522
[32] = test system: OVCAR-3
[33] = test system: OVCAR-4
[34] = test system: OVCAR-5
[35] = test system: OVCAR-8
[36] = test system: RXF 393
[37] = test system: RXF 631
[38] = test system: SF-268
[39] = test system: SF-295
[40] = test system: SF-539
[41] = test system: SK-MEL-28
[42] = test system: SK-MEL-2
[43] = test system: SK-MEL-5
[44] = test system: SK-OV-3
[45] = test system: SN12C
[46] = test system: SNB-19
[47] = test system: SNB-75
[48] = test system: SNB-78
[49] = test system: SR
[50] = test system: SW-620
[51] = test system: TK-10
[52] = test system: U-251
[53] = test system: UACC-257
[54] = test system: UACC-62
[55] = test system: UO-31
[56] = test system: XF498

Measured: GI50

O=C(c1ccccc1)c1ccc(OCCOc2ccc(Nc3ccccc3)cc2)cc1
74.6 µM: [14]
inactive: [1] 25 µM | [2] 27.4 µM | [3] 64.3 µM | [4] 24.3 µM | [5] 47.3 µM | [6] > 100 µM | [7] > 100 µM | [8] 50.9 µM | [9] 6.84 µM | [10] > 100 µM | [11] 74.8 µM | [12] > 100 µM | [13] 69.2 µM | [15] 65.5 µM | [16] 23.9 µM | [17] 27.3 µM | [18] 52.2 µM | [19] > 100 µM | [20] > 100 µM | [21] > 100 µM | [22] > 100 µM | [23] 41.1 µM | [24] 49.5 µM | [25] 70.3 µM | [26] > 100 µM | [27] 19.2 µM | [28] 33.6 µM | [29] 46.8 µM | [30] 65.5 µM | [31] 17.8 µM | [32] 37.2 µM | [33] 17.7 µM | [34] > 100 µM | [35] 32.4 µM | [36] 35.2 µM | [37] 17.7 µM | [38] 27.3 µM | [39] 27.2 µM | [40] 24.5 µM | [41] 73.3 µM | [42] 38.3 µM | [43] 21.9 µM | [44] 22.9 µM | [45] 42.3 µM | [46] 27.7 µM | [47] 15.6 µM | [48] 35.2 µM | [49] > 100 µM | [50] > 100 µM | [51] 28.6 µM | [52] 16.6 µM | [53] 65.8 µM | [54] 63.4 µM | [55] > 100 µM | [56] 16.1 µM
